In paper PMC12040169 (PLOS Biology, 2025):

Test: in vitro
Details: human, hela cells, % viability

`C[C@]12CN(C(=O)c3ccccc3)C[C@H]1NC(=O)c1ccccc1C2=O` [CBK281657] and `C[C@]12CN(C(=O)C3CC3)C[C@H]1NC(=O)c1ccccc1C2=O` [CBK281660] are the same in viability at 28.5 h, 10 µM: 102% for the first, 102% for the second.

Compared with `C=C1C2(C(=O)NCCn3nc(C)c(Cl)c3C)CCC(C2)C1(C)C` (stereo not shown) [CBK281661], `Cc1nn(CCC(=O)NC2CCOc3ccccc32)c(C)c1Cl` (stereo not shown) [CBK281684] is higher in viability at 28.5 h, 10 µM: 81.5% for the first, 96.7% for the second.

Compared with `CC(NC(=O)C1CC(=O)N(c2cccc(F)c2)C1)C1CC2CCC1C2` (stereo not shown) [CBK281664], `Cn1cc2c(n1)CC1CCC2N1C(=O)c1ccc(F)c(F)c1` (stereo not shown) [CBK281691] is lower in viability at 28.5 h, 10 µM: 99.9% for the first, 92.6% for the second.

Compared with `O=C(NCCCc1nc2cc(F)ccc2[nH]1)[C@@H]1C[C@@H]2C=C[C@H]1C2` [CBK281665], `CN(CC1(C)COC1)C(=O)CCc1nc2ccccc2[nH]1` [CBK281719] is lower in viability at 28.5 h, 10 µM: 103% for the first, 88.8% for the second.

Compared with `CC(=O)NCc1ccc(-c2cc(CN(C)C)n(C)n2)cc1` [CBK281667], `CCC(=O)NCc1ccc(-c2cc(CN(C)C)n(C)n2)cc1` [CBK281668] is higher in viability at 28.5 h, 10 µM: 99.1% for the first, 103% for the second.

First: Cc1c(C)n(C)c2ccc(C(=O)NCCC(=O)N3CCOCC3)cc12 [CBK281669]
Second: Cc1ccc2c(C)c(-c3cncn3C(C)CN3CCOCC3)oc2c1 (stereo not shown) [CBK281796]
The viability at 28.5 h, 10 µM of the first is lower: 65.8% for the first, 107% for the second.

First: Cc1cc(C)n(CC(C)NC(=O)c2cc(C(F)(F)F)nn2C)n1 (stereo not shown) [CBK281671]
Second: Cc1cc(C)n(C(C)C(=O)N(C)CCn2ccnc2C)n1 (stereo not shown) [CBK281759]
The viability at 28.5 h, 10 µM of the first is higher: 92.2% for the first, 88.1% for the second.

Going from `COCC(=O)N1CCc2nc(-c3ccc(F)cc3)sc2C1` [CBK281673] to `CN(C)CC(=O)N1CCc2nc(-c3cccc(F)c3)sc2C1` [CBK281801], the viability at 28.5 h, 10 µM falls from 107% to 106%.

Compared with `CN1CCCC(Cc2cc(-c3ccccc3)no2)(C(=O)N(C)C)C1` (stereo not shown) [CBK281674], `Cc1ccc(-c2cc(CC3(C(=O)N(C)C)CCCN(C)C3)on2)cc1` (stereo not shown) [CBK281695] is lower in viability at 28.5 h, 10 µM: 102% for the first, 89.3% for the second.

Going from `CC1CCCCN1CC(C)(C)NC(=O)c1cc(C2CC2)on1` (stereo not shown) [CBK281676] to `C[C@H]1CN(C(=O)c2cc(C3CC3)no2)[C@@H](C)CN1Cc1ccco1` [CBK281736], the viability at 28.5 h, 10 µM rises from 100% to 106%.

First: O=C(O)C1(Cc2ccc(-c3cccs3)cc2)CCNC1 (stereo not shown) [CBK281679]
Second: O=C(O)C1(Cc2cccc(-c3cccs3)c2)CCCNC1 (stereo not shown) [CBK281688]
The viability at 28.5 h, 10 µM of the first is higher: 90.8% for the first, 90.5% for the second.

Going from `CCN1C(=O)c2ccccc2C(=O)[C@@]2(C)CN(C(C)=O)C[C@@H]12` [CBK281686] to `CC1(CNC(=O)c2ccccc2Cn2cccn2)COC1` [CBK281750], the viability at 28.5 h, 10 µM falls from 89.7% to 89.4%.

Compared with `O=C(O)C1(Cc2ccc(-c3ccccc3)cc2)CCNC1` (stereo not shown) [CBK281687], `O=C(Cn1cccn1)Nc1ccc2c(c1)CN(Cc1ccccc1)C2` [CBK281829] is lower in viability at 28.5 h, 10 µM: 91.2% for the first, 85.6% for the second.

Going from `CC(=O)N(C)[C@H]1CC[C@]2(CC1)CNC(=O)c1cc(C)ccc1O2` [CBK281690] to `CCC1C(=O)NCCN1C(=O)c1cc2cc(C)ccc2n1C` (stereo not shown) [CBK281729], the viability at 28.5 h, 10 µM rises from 101% to 110%.

Compared with `CC(C)C(=O)NCCn1nc(-c2ccccc2F)cc1CN(C)C` [CBK281693], `CN(C)Cc1ccccc1Cn1cncc1-c1cnn(C)c1` [CBK281764] is higher in viability at 28.5 h, 10 µM: 91.4% for the first, 99.5% for the second.

Going from `NCCn1cc(-c2cccc(F)c2)c(C2CCOCC2)n1` [CBK281696] to `CC1(CNC(=O)c2cc(-c3cccc(F)c3)no2)COC1` [CBK281751], the viability at 28.5 h, 10 µM falls from 91.1% to 87.7%.

Going from `CCN1CCc2cc(-c3cncn3CC(=O)NC(C)(C)C)ccc21` [CBK281698] to `CC1Cc2cc(-c3cncn3CC(=O)NC(C)(C)C)ccc2N1C` (stereo not shown) [CBK281699], the viability at 28.5 h, 10 µM falls from 94.8% to 77.3%.

Compared with `CC1CCN(C(C)Cn2cncc2-c2cnn(C)c2)CC1` (stereo not shown) [CBK281703], `CCCn1nc(C)c(-c2cncn2CC(C)N2CCC(C)CC2)c1C` (stereo not shown) [CBK281791] is lower in viability at 28.5 h, 10 µM: 95.5% for the first, 85.2% for the second.

First: CCn1cc(-c2cncn2CCCC(C)(C)CO)cn1 [CBK281704]
Second: CCn1cc(-c2cncn2CCCn2nc(C)cc2C)cn1 [CBK281770]
The viability at 28.5 h, 10 µM of the first is lower: 88.3% for the first, 97.1% for the second.

Compared with `Cc1cc(CN(C)Cc2ccc3c(c2)n(C)c(=O)n3C)n[nH]1` [CBK281705], `COc1ccc2c(CN(C)Cc3cc(C)[nH]n3)cn(C)c2c1` [CBK281734] is higher in viability at 28.5 h, 10 µM: 101% for the first, 103% for the second.

First: Cc1cc(CN(C)Cc2c(-c3ccccc3)nn(C)c2C)n[nH]1 [CBK281707]
Second: Cc1cc(CN(C)Cc2c(C)nc3c(C)cccn23)n[nH]1 [CBK281716]
The viability at 28.5 h, 10 µM of the first is lower: 88.8% for the first, 99.1% for the second.

Going from `CCn1cc(-c2cncn2CCn2nc(C)c(Cl)c2C)cn1` [CBK281708] to `CCn1cc(-c2cncn2CC(C)n2nc(C)cc2C)cn1` (stereo not shown) [CBK281775], the viability at 28.5 h, 10 µM falls from 87.9% to 87.1%.

Compared with `CC(CN1CCCC1)NC(=O)c1ccc2c(c1)ncn2C` (stereo not shown) [CBK281715], `Cc1nc2cc(C(=O)NC(C)c3ccccn3)ccc2n1C` (stereo not shown) [CBK281822] is lower in viability at 28.5 h, 10 µM: 102% for the first, 84.2% for the second.

First: CN(CC1(C)COC1)C(=O)c1cn2cc(Cl)ccc2n1 [CBK281721]
Second: CC1(CNC(=O)c2cn3cc(Cl)ccc3n2)COC1 [CBK281748]
The viability at 28.5 h, 10 µM of the first is higher: 109% for the first, 91.4% for the second.

First: CN(CC1(C)COC1)C(=O)C(c1ccc(F)cc1)N(C)C (stereo not shown) [CBK281722]
Second: CN(C)C(C(=O)NCC1(C)COC1)c1ccc(Cl)cc1 (stereo not shown) [CBK281753]
The viability at 28.5 h, 10 µM of the first is higher: 107% for the first, 102% for the second.

First: Cc1ccc2c(c1)cc(C(=O)N(C)CC1(C)COC1)n2C [CBK281723]
Second: Cc1ccc(-c2cc(C(=O)NCC3(C)COC3)no2)cc1 [CBK281744]
The viability at 28.5 h, 10 µM of the first is lower: 86.4% for the first, 93.8% for the second.

Compared with `CC1CCN(c2ccc(C(C)NC(=O)Cn3cccn3)cc2)CC1` (stereo not shown) [CBK281725], `CCn1c(C)nc2cc(NC(=O)Cn3cccn3)ccc21` [CBK281828] is higher in viability at 28.5 h, 10 µM: 86.1% for the first, 89.5% for the second.

First: Cc1nn(C)cc1C(C)NC(=O)c1cn2cccc(C)c2n1 (stereo not shown) [CBK281731]
Second: Cc1cccn2cc(C(=O)NCCCn3cccn3)nc12 [CBK281749]
The viability at 28.5 h, 10 µM of the first is higher: 92.1% for the first, 75.3% for the second.

Going from `CC(Cn1cncc1-c1cnn(C)c1)Oc1ccccc1Cl` (stereo not shown) [CBK281737] to `Cc1ccccc1OCCCn1cncc1-c1cnn(C)c1` [CBK281762], the viability at 28.5 h, 10 µM falls from 105% to 91.1%.

First: Cc1nn(C)cc1-c1cncn1C(C)(C)CN1CCC(C)CC1 [CBK281740]
Second: Cc1nn(C)cc1-c1cncn1CC1(N(C)C)CCC(C)CC1 (stereo not shown) [CBK281799]
The viability at 28.5 h, 10 µM of the first is higher: 108% for the first, 88.9% for the second.

Compared with `CN(C)CCC(c1ccccc1)n1cncc1-c1cnn(C)c1` (stereo not shown) [CBK281742], `Cc1cccc(C2(Cn3cncc3-c3cnn(C)c3)CCOCC2)c1` [CBK281765] is lower in viability at 28.5 h, 10 µM: 93.6% for the first, 79% for the second.

Compared with `Cc1nccn1C(C(=O)NCC1(C)COC1)c1ccccc1` (stereo not shown) [CBK281743], `Cc1cc(C)n(-c2ccc(C(=O)NCC3(C)COC3)cc2)n1` [CBK281756] is lower in viability at 28.5 h, 10 µM: 97.9% for the first, 92.1% for the second.

Compared with `CC1(CNC(=O)c2ccc(N3CCCCC3)cc2)COC1` [CBK281746], `CC12CCC(=O)N1CCCN2Cc1cnn(-c2ccc(F)cc2)c1` (stereo not shown) [CBK281819] is lower in viability at 28.5 h, 10 µM: 105% for the first, 94.2% for the second.

First: Cc1cccc(OCCCn2cncc2-c2cn(C)nc2C)c1 [CBK281766]
Second: Cc1ccccc1OCCCn1cncc1-c1cn(C)nc1C [CBK281813]
The viability at 28.5 h, 10 µM of the first is higher: 90% for the first, 85.1% for the second.

Compared with `CCn1cc(-c2cncn2CCCN2CCCCC2)cn1` [CBK281767], `CCn1cc(-c2cncn2CCOc2ccc(Cl)cc2)cn1` [CBK281776] is lower in viability at 28.5 h, 10 µM: 82.9% for the first, 81.8% for the second.

Going from `Cc1cc(C)n(CCCn2cncc2-c2cn(C)nc2C)n1` [CBK281772] to `Cc1cc(C)n(C(C)Cn2cncc2-c2cn(C)nc2C)n1` (stereo not shown) [CBK281792], the viability at 28.5 h, 10 µM rises from 94.8% to 102%.

First: CCn1nc(C)c(-c2cncn2CC(C)n2nc(C)cc2C)c1C (stereo not shown) [CBK281777]
Second: CCCn1nc(C)c(-c2cncn2CC(C)n2nc(C)cc2C)c1C (stereo not shown) [CBK281793]
The viability at 28.5 h, 10 µM of the first is higher: 109% for the first, 103% for the second.

Going from `COc1ccc2[nH]c(-c3cncn3CCCC(C)(C)CO)cc2c1` [CBK281778] to `Cc1nn(C)cc1-c1cncn1CCCOc1ccc(Cl)cc1` [CBK281787], the viability at 28.5 h, 10 µM falls from 90.9% to 87.5%.

Going from `Cc1nn(C)cc1-c1cncn1CCN(C)C1CCCC1` [CBK281780] to `CCCn1nc(C)c(-c2cncn2CCN(C)C2CCCC2)c1C` [CBK281790], the viability at 28.5 h, 10 µM falls from 95.8% to 91.3%.

Going from `CCn1nc(C)c(-c2cncn2CCn2nc(C)c(C)c2C)c1C` [CBK281782] to `Cc1nn(C)cc1-c1cncn1CCn1nc(C)c(C)c1C` [CBK281785], the viability at 28.5 h, 10 µM rises from 98.8% to 108%.

Going from `Cc1nn(C)cc1-c1cncn1C(C)Cc1c(C)nn(C)c1C` (stereo not shown) [CBK281786] to `Cc1nn(C)cc1-c1cncn1C(C)c1ccc2c(c1)CCCO2` (stereo not shown) [CBK281798], the viability at 28.5 h, 10 µM falls from 115% to 100%.

Compared with `Cc1nn(C)c(C)c1CCn1cncc1-c1ccc2c(c1)CC(C)N2C` (stereo not shown) [CBK281788], `CCN1CCCc2cc(-c3cncn3CCCn3ccnc3C)ccc21` [CBK281810] is higher in viability at 28.5 h, 10 µM: 76% for the first, 109% for the second.

First: Cc1nn(C)cc1-c1cncn1Cc1ccc2c(c1)CCCO2 [CBK281797]
Second: Cc1cc(C)n(CCCN(C)Cc2ccc(N3CCCC3=O)cc2)n1 [CBK281827]
The viability at 28.5 h, 10 µM of the first is higher: 90.4% for the first, 88.3% for the second.

Going from `CCC(CN1CCOCC1)n1cncc1-c1[nH]c2ccccc2c1C` (stereo not shown) [CBK281800] to `CCn1nc(C)c(-c2cncn2CC(C)N2CCCCC2)c1C` (stereo not shown) [CBK281808], the viability at 28.5 h, 10 µM falls from 106% to 102%.

Compared with `Cc1nc2ccccn2c1CN1CCC(Oc2ccc(F)cc2)CC1` [CBK281803], `CCn1c(C)nc2cc(NC(=O)Cn3cnc4ccccc43)ccc21` [CBK281832] is higher in viability at 28.5 h, 10 µM: 90.1% for the first, 94.1% for the second.

First: Cc1cc(C)n(C2CCN(Cc3cnn(C4CCCCC4)c3)CC2)n1 [CBK281804]
Second: CCn1c(C)nc2cc(NC(=O)c3c4c(nn3C)CCCC4)ccc21 [CBK281831]
The viability at 28.5 h, 10 µM of the first is lower: 89.2% for the first, 93.8% for the second.

Compared with `Cc1cc(=O)n(CC(=O)NC(C)c2ccccn2)c2ccccc12` (stereo not shown) [CBK281820], `Cc1oc2c(c1C(=O)NC(C)c1ccccn1)CCCC2` (stereo not shown) [CBK281825] is higher in viability at 28.5 h, 10 µM: 96.3% for the first, 109% for the second.
